Measured values taken from patent US11517575B2, “Use of minaprine to reduce tumor growth” (Institut Gustave-Roussy, priority 2019, dated 2022).

Legend:
HCT116 cells = assay: Screening of chemical libraries for IR-mediated cellular cannibalism (imaging flow cytometry, confocal validation); type: cell-based, human; settings: 8 Gy irradiated HCT116 cells, 10 μM compound, 24 h culture
Protocol: FIG. 4 Identification of cannibalism modulators triggered by ionizing radiation. Compounds from the Prestwick (A) and CEA (F) libraries were tested for their capacities to induce cellular cannibalism after ionizing radiation. Cannibal cells were detected after homotypic cultures of 8 gray γ-irradiation HCT116 cells in the presence or absence of 10 μM of the Prestwick (A) and CEA […] library compounds. Each dot represents one compound. Representative images are shown in (B, G). (C, H) HCT116 cells were treated with the indicated drugs. After 24 h of treatment, cell death was monitored by staining with 3,3 dihexyloxacarbocyanine iodide (DiOC6(3)) and PI^+, and the percentage of dying (DiOC6(3)^low PI^−, open bars) and dead (DiOC6(3)^low PI^+, closed bars) cells was determined by cytofluorometry. Validation of the cannibalism inducers by fluorescent microscopy. Representative images (D, I) and quantification (E, J) are shown. Results are means s.e.m. of triplicate determinations.
Untreated HCT116 cells were labeled with CMFDA (green fluorescence, CMFDA^+) or CMTMR, (red fluorescence, CMTMR) and treated HCT116 cells with CMFDA (green fluorescence, CMFDA^+). The following cell mixtures were performed: untreated CMTMR^+ HCT116 cells were mixed with untreated CMFDA^+ HCT116 cells, or untreated CMTMR^+ HCT116 cells were mixed with treated CMFDA^+ HCT116 cells. Then, cells were co-cultured during 24 hours in the presence or absence of the pharmacological inhibitor of ROCK, Y27632 (30 μM), the pan-caspase inhibitor, Z-VAD-fmk (ZVAD, 100 μM), the inhibitor of caspase-1, Ac-YVAD-cmk (YVAD, 100 μM), the necroptosis inhibitor, Necrostatin-1 (NEC1, 30 μM), the inhibitor of the vacuolar type H(+)-ATPase (V-ATPase) inhibiting autophagy, Bafilomycin A1 (BafA1, 50 nM), the inhibitor of Cdks with an anti-mitotic activity, Roscovitine (Rosco, 10 μM). After 24 hours of co-culture, both detached and adherent cells were collected and stained with Hoechst […] (10 μg/mL) during 1 hour at 37° C. in warmed complete medium. To detect phosphatidylserine (PS) exposure and plasma membrane permeability, labeled HCT116 cells were successively incubated with Biotin-AnnexinV (BD Pharmingen) as recommended by manufacturer, […] BV786-Streptavidin (BD Biosciences) and 3 μM DRAQ7 (BioStatus) during 15 minutes at 25° C. After washing with PBS solution, samples were immediately analyzed using an imaging flow cytometer FlowSight® (Amnis®, part of EMD Millipore). Data were acquired at a 20× magnification, using INSPIRE software. The 405 nm, 488 nm, and 561 nm lasers were used for excitation. Brightfield, Annexin V-BV786, DRAQ7, CMFDA, CMTMR and Hoechst […] stainings were detected using respectively channels for 420-480 nm, 745-800 nm, 642-745 nm, 480-560 nm, 595-642 nm and 430-505 nm. At least 1000 events of cells per sample were analyzed. Additional single-labeled controls were prepared to normalize fluorescent signal across different channels. Acquired data were analyzed using the IDEAS analysis software (v6.1; Merck-Millipore). Gating strategy was the following. Cells were gated for focused cells using the Gradient RMS feature. Cells were gated for single cells using the aspect ratio and area features. For the cannibalism detection, cells were gated in the double positive CMFDA^+ and CMTMR^+ staining.
To detect PS exposure, plasma membrane permeability and cell cycle progression, cells were after co-culture sequentially labeled with specific fluorescent probes (such as FITC-conjugated AnnexinV, propidium iodide, and Hoechst 33342) and analyzed by flow cytometry. Both detached and adherent cells were collected and stained with Hoechst […] (10 μg/ml) during 1 hour at 37° C. in warmed complete medium. After washing with PBS, HCT116 cells were suspended in 1× binding buffer supplemented with fluorescein isothiocyanate (FITC)-conjugated Annexin V (BD Biosciences) and propidium iodide (PI, 1 μg/mL) (Sigma), as per manufacturer's instructions. […]

MCA205 cells [1] = assay: Cell death of treated MCA205 cells (DiOC6(3)/PI cytofluorometry); type: cell-based, mouse; settings: 10 μM compound alone, 24 h
Protocol: (§1) FIG. 5. Identification of cannibalism modulators as immunogenic cell death inducers. MCA205 (A) or CT26 (E, I, M, Q) cells were treated with the indicated drugs. After 24 h of coculture with the indicated treatment, cell death was monitored by staining DiOC6(3) and PI, and the percentage of dying (DiOC6(3)^low PI^−, open bars) and dead (DiOC6(3)^low PI^+, closed bars) cells was determined by cytofluorometry. (B-D) MCA205 cells or (F-H, J-L, N-P, R-T) CT26 cells cocultured after x irradiation with the indicated compounds were inoculated subcutaneously into the right flank of […] or BALB/c mice, respectively. Seven days later, the mice were rechallenged with live cells injected into the opposite flank, and tumor growth was monitored (five mice per group).
(§2) The combination of IRCCE with IR induces efficient antitumor immunity. Considering that immunogenic cell death (ICD) inducers were identified (such as Digoxin, Digitoxin, Lanatoside C or Doxorubicin hydrochloride)^3, 4, 48-51) as IRCCE, the ability of these compounds to induce an antitumor immunity after radiotherapy was evaluated. […] Tumors were evaluated weekly using a common caliper. […] One week later, 5×10^5 untreated control cells were inoculated into the contralateral flank of mice and tumors were evaluated weekly using a common caliper. […]

MCA205 cells [2] = assay: Anti-tumor vaccination assay, MCA205 cells in C57BL/6 mice; type: in vivo, mouse; settings: rechallenge one week later
Protocol: as §1, §2

CT26 cells = assay: Anti-tumor vaccination assay, CT26 cells in BALB/c mice; type: in vivo, mouse; settings: 8 Gy + 10 μM compound 24 h
Protocol: as §1
FIG. 6. Tumor vaccination experiments. CT26 cells were treated for 24 hours with 10 μM VP331 (A, F, K), 10 μM Minaprine (B, G, L), 10 μM Lopa87 (C, H, M), 10 μM SG6163F (D, I, N), 10 μM Azaguanine-8 (8-aza) (E, J, O) alone or combined with 8 Gy ionizing radiation and inoculated (s.c.) into immunocompetent BALB/c mice, which were rechallenged at the opposite flank 7 days later with the same cancer cells. The percentage of tumor-free mice was evaluated three times a week for the following 38 days. Percentage of total tumor free mice (A-E), tumor free-mice at the first injection site (F to J, P) or at the second injection site (K to O, Q) are shown. (*P<0.05, **P<0.01, ***P<0.001, two-way ANOVA).
The combination of IRCCE with IR induces efficient antitumor immunity. Considering that immunogenic cell death (ICD) inducers were identified (such as Digoxin, Digitoxin, Lanatoside C or Doxorubicin hydrochloride)^3, 4, 48-51) as IRCCE, the ability of these compounds to induce an antitumor immunity after radiotherapy was evaluated. First, a preclinical approaches was developed to study the immunological effects of IRCCE on two mouse models of carcinoma (colon CT26 carcinoma and fibrosarcoma MCA205). Initially, the ability of the combination of IRCCE+IR to trigger a specific anti-tumor immune response was appreciated using immunocompetent mice through anti-tumor vaccination assays. According to previously published studies^52, the injection of cancer cells succumbing to an immunogenic cell death (ICD) into immunocompetent mice must elicit a protective immune response that is specific for tumor antigens. Thus, 3×10^5 MCA205 cells were first treated with 10 μM of SG6163F for 24 hours. Then, treated cells were inoculated subcutaneously in 200 μl PBS into the lower flank of 8-week-old female C57BL/6 mice. One week later, 3×10^4 untreated control cells were inoculated into the contralateral flank of mice. Tumors were evaluated weekly using a common caliper. Animals bearing tumors that exceeded 20-25% body mass were euthanatized. […] Then, 3×10^6 CT26 cells were irradiated with 8 Gy in presence of 10 μM of SG6163F (FIGS. 5E and 5F), VP331 (FIGS. 5I and 5J), Minaprine dihydrochloride (FIGS. 5M and 5N) or LOPA87 (FIGS. 5Q and 5R) for 24 hours. Then, cells were inoculated as previously described subcutaneously in […] into the lower flank of 8-week-old female BALB/c mice. One week later, 5×10^5 untreated control cells were inoculated into the contralateral flank of mice and tumors were evaluated weekly using a common caliper. As previously mentioned, animals bearing tumors that exceeded 20-25% body mass were euthanatized. The percentage of dying cells in each condition was evaluated by determining with DiOC(6)3/IP staining (FIGS. 5E, 5I, 5M and 5Q). Finally, the ability of these compounds to repress the growth of cancer cells that have been injected 7 days after injection of irradiated and treated cancer cells was appreciated.
A second anti-tumor vaccination assay was done on CT26 mouse models of carcinoma as previously described. […]

O=C1NC(c2ccccc2)=N/C1=C\c1cc2ccccc2c2ccccc12 [SG6163F]
enhancement of IR-mediated cellular cannibalism (HCT116 cells): efficient cellular cannibalism enhancer
increase of cell death in vitro (MCA205 cells [1]): not able to induce a significant increase of cell death
protective response after inoculation of untreated cells (MCA205 cells [2]; MCA205 cells treated with 10 μM compound alone, s.c. in C57BL/6 mice): did not exhibit a protective response
mice with protective response (MCA205 cells [2]; MCA205 cells treated with 8 Gy of IR and 10 μM compound, C57BL/6 mice): 3 of 5
frequency of mice showing a protective response (CT26 cells; first assay: CT26 cells, rechallenge one week later): significant increase in the frequency of mice showing a protective response
frequency of mice showing a protective response (CT26 cells; second assay: CT26 cells, rechallenge 7 days later): Significant increases in the frequency of mice showing a protective response
